# Values quoted from earlier work in patent US20040166561A1, “Novel intein and uses thereof” (priority 2001, published 2004).
# Key:
# [1] = molecular target: T1, naturally split DnaE intein from Synechocystis sp. PCC6803 (Synechocystis sp., UniProt P74750); conditions: 0.2 mM zinc (6parts/million); in vitro, splicing in trans
# T1 construct: by the naturally split DnaE intein from Synechocystis sp; PCC6803
# [2] = system: RecA intein from Mycobacterium tuberculosis; conditions: 0.2 mM zinc (6parts/million); in vitro, splicing in trans
structure (smiles),measurement,setting,value
[Zn+2] [zinc],inhibition of protein splicing,[1],90%
same,inhibition of protein splicing,[2],90%
